Data on 17 molecules can be found in patent US8524750B2, “(Pyrazol-3-yl)-1,3,4-thiadiazol-2-amine and (pyrazol-3-yl)-1,3,4-thiazol-2-amine compounds” (Glaxo Group Limited, priority 2009, dated 2013).

Molecules are shown by their SMILES. Converted amounts (≈) assume the structure as drawn. Like-named read-outs stand apart in the source and are kept apart here.

The subject of assay [1] is Mycobacterium tuberculosis H37Rv. Briefly: Mycobacterium tuberculosis H37Rv Inhibition Assay (Whole Cell Assay). It counts as cell-based. The conditions noted are these: ATCC 25618 / H37Rv, H37Rv strain (ATCC25618), Middlebrook 7H9, six days at 37° C., resazurin fluorescence after 48 hours. For orientation: Resazurin is reduced to fluorescent resorufin, in cell work by metabolically active cells.

The target of assay [2] is T1, Mycobacterium tuberculosis InhA (Mycobacterium tuberculosis, UniProt P9WGR1).
T1 construct: made in house; host or cells: E. coli
Briefly: Mycobacterium tuberculosis InhA Inhibition Assay (Enzyme Assay). It counts as biochemical. Particulars: 5 nM InhA, 50 μM DDCoA, 50 μM NADH, PIPES buffer pH 6.8, initial velocities of NADH consumption. Summed up:
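Recombinant Mtb InhA (E. coli-expressed), 5 nM, with 50 μM dodecenoyl-CoA and 50 μM NADH in 30 mM PIPES pH 6.8, 0.05% BSA; reaction started with enzyme. NADH fluorescence (ex 340/em 480 nm) followed 20 min at room temperature; IC50 from initial velocities of NADH consumption.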

T1 sequence (P9WGR1 whole entry, looked up): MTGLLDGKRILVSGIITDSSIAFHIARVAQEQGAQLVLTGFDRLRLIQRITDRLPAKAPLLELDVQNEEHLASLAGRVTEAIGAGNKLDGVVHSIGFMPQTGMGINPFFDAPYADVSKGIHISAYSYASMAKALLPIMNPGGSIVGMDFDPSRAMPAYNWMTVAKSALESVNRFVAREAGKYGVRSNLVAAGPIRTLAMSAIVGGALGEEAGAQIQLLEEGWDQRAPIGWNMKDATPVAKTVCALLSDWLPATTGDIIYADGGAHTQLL

A word on the MIC: it is the smallest concentration in the dilution series that meets the test's criterion for growth inhibition. High values mean a less susceptible organism, low ones a more susceptible organism. For orientation: IC50 means the concentration that gives 50% inhibition. `COC(C)(c1nc(C)cs1)c1nnc(Nc2ccn(Cc3c(F)cccc3Cl)n2)s1` (stereo not shown) [Example 72, N-{1-[(2-chloro-6-fluorophenyl)methyl]-1H-pyrazol-3-yl}-5-[1-(methyloxy)-1-(4-methyl-1,3-thiazol-2-yl)ethyl]-1,3,4-thiadiazol-2-amine] registered an MIC in assay [1] of 1 to 4 µM (≈ 0.465 to 1.86 µg/mL). Also, in assay [2] (read-out: IC50 value), the IC50 is below 108 nM.
Regarding `COC(c1nc(C)cs1)c1nnc(Nc2ccn(Cc3c(F)cccc3F)n2)s1` (stereo not shown) [Example 73, N-{1-[(2,6-difluorophenyl)methyl]-1H-pyrazol-3-yl}-5-[(methyloxy)(4-methyl-1,3-thiazol-2-yl)methyl]-1,3,4-thiadiazol-2-amine], in assay [1], the MIC was above 10 µM. Moreover, the IC50 in assay [2] (IC50 value) lay within 115 to 230 nM.
`Cc1csc(C(C)(C)c2nnc(Nc3ccn(Cc4c(F)cccc4Cl)n3)s2)n1` [Example 74, N-{1-[(2-chloro-6-fluorophenyl)methyl]-1H-pyrazol-3-yl}-5-[1-methyl-1-(4-methyl-1,3-thiazol-2-yl)ethyl]-1,3,4-thiadiazol-2-amine]: in assay [1], the MIC lay within 1 to 4 µM (≈ 0.449 to 1.8 µg/mL). The IC50 in assay [2] (IC50 value) was below 111 nM.
In the case of `Cc1cc(C)n(C(C)c2nnc(Nc3ccn(Cc4ccc(F)cc4)n3)s2)n1` (stereo not shown) [Example 75, 5-[1-(3,5-dimethyl-1H-pyrazol-1-yl)ethyl]-N-{1-[(4-fluorophenyl)methyl]-1H-pyrazol-3-yl}-1,3,4-thiadiazol-2-amine], the MIC in assay [1] is above 10 µM. The IC50 in assay [2] (IC50 value) was in the range of 126 to 252 nM.
With `Cc1ccn(C(C)c2nnc(Nc3ccn(Cc4c(F)cccc4F)n3)s2)n1` (stereo not shown) [Example 76, N-{1-[(2,6-difluorophenyl)methyl]-1H-pyrazol-3-yl}-5-[1-(3-methyl-1H-pyrazol-1-yl)ethyl]-1,3,4-thiadiazol-2-amine], the MIC in assay [1] was at most 1 µM. The same molecule came in with an IC50 in assay [2] (IC50 value) below 125 nM.
The corresponding values for `Cc1cc(C)n(C(C)c2nnc(Nc3ccn(Cc4c(F)ccc(F)c4F)n3)s2)n1` (stereo not shown) [Example 77, 5-[1-(3,5-dimethyl-1H-pyrazol-1-yl)ethyl]-N-{1-[(2,3,6-trifluorophenyl)methyl]-1H-pyrazol-3-yl}-1,3,4-thiadiazol-2-amine] are at most 1 µM and below 115 nM.
The corresponding values for `Cc1csc(C(C)(O)c2nnc(Nc3ccn(Cc4cccc(Cl)c4F)n3)s2)n1` (stereo not shown) [Example 79, 1-[5-({1-[(3-chloro-2-fluorophenyl)methyl]-1H-pyrazol-3-yl}amino)-1,3,4-thiadiazol-2-yl]-1-(4-methyl-1,3-thiazol-2-yl)ethanol] are at most 1 µM and below 111 nM.
For `Cc1csc(C(C)(O)c2nnc(Nc3ccn(Cc4cccc(F)c4F)n3)s2)n1` (stereo not shown) [Example 80, 1-[5-({1-[(2,3-difluorophenyl)methyl]-1H-pyrazol-3-yl}amino)-1,3,4-thiadiazol-2-yl]-1-(4-methyl-1,3-thiazol-2-yl)ethanol] the same measures were at most 1 µM and below 115 nM.
In turn, `Cc1cc(C)n(C(C)c2nnc(Nc3ccn(Cc4c(F)ccc(C)c4F)n3)s2)n1` (stereo not shown) [Example 81, N-{1-[(2,6-difluoro-3-methylphenyl)methyl]-1H-pyrazol-3-yl}-5-[1-(3,5-dimethyl-1H-pyrazol-1-yl)ethyl]-1,3,4-thiadiazol-2-amine] registered an MIC in assay [1] of at most 1 µM. The molecule also registered an IC50 in assay [2] (IC50 value) below 116 nM.
Turning to `CCOc1c(F)ccc(F)c1Cn1ccc(Nc2nnc(C(C)n3nc(C)cc3C)s2)n1` (stereo not shown) [Example 82, 5-[1-(3,5-dimethyl-1H-pyrazol-1-yl)ethyl]-N-(1-{[2-(ethyloxy)-3,6-difluorophenyl]methyl}-1H-pyrazol-3-yl)-1,3,4-thiadiazol-2-amine], the MIC in assay [1] is 4 to 10 µM (≈ 1.84 to 4.6 µg/mL). This molecule also came in with an IC50 in assay [2] (IC50 value) below 109 nM.
In assay [1], `Cc1csc(C(C)(O)c2nnc(Nc3ccn(Cc4cccc(C)c4F)n3)s2)n1` (stereo not shown) [Example 83, 1-[5-({1-[(2-fluoro-3-methylphenyl)methyl]-1H-pyrazol-3-yl}amino)-1,3,4-thiadiazol-2-yl]-1-(4-methyl-1,3-thiazol-2-yl)ethanol] had an MIC of at most 1 µM. Also, the IC50 in assay [2] (IC50 value) is below 116 nM.
The corresponding values for `Cc1csc(C(C)(O)c2nnc(Nc3ccn(Cc4c(F)ccc(C)c4F)n3)s2)n1` (stereo not shown) [Example 84, 1-[5-({1-[(2,6-difluoro-3-methylphenyl)methyl]-1H-pyrazol-3-yl}amino)-1,3,4-thiadiazol-2-yl]-1-(4-methyl-1,3-thiazol-2-yl)ethanol] are at most 1 µM and below 111 nM.
For `Cc1csc(C(C)c2nnc(Nc3ccn(Cc4c(F)ccc(C)c4F)n3)s2)n1` (stereo not shown) [Example 85, N-{1-[(2,6-difluoro-3-methylphenyl)methyl]-1H-pyrazol-3-yl}-5-[1-(4-methyl-1,3-thiazol-2-yl)ethyl]-1,3,4-thiadiazol-2-amine] the same measures were 1 to 4 µM (≈ 0.433 to 1.73 µg/mL) and below 116 nM.
For `Cc1ccn(C(C)c2nnc(Nc3ccn(Cc4c(F)ccc(C)c4F)n3)s2)n1` (stereo not shown) [Example 86, N-{1-[(2,6-difluoro-3-methylphenyl)methyl]-1H-pyrazol-3-yl}-5-[1-(3-methyl-1H-pyrazol-1-yl)ethyl]-1,3,4-thiadiazol-2-amine] the same measures were at most 1 µM and below 120 nM.
Take `Cc1cc(C)n(C(C)c2nnc(Nc3ccn(Cc4c(F)ccc(N)c4F)n3)s2)n1` (stereo not shown) [Example 87, N-{1-[(3-amino-2,6-difluorophenyl)methyl]-1H-pyrazol-3-yl}-5-[1-(3,5-dimethyl-1H-pyrazol-1-yl)ethyl]-1,3,4-thiadiazol-2-amine]: in assay [1], the MIC is 1 to 4 µM (≈ 0.43 to 1.72 µg/mL). The IC50 in assay [2] (IC50 value) is below 116 nM.
The corresponding values for `CCOC(=O)Nc1cccc(Cn2ccc(Nc3nnc(C(C)(O)c4nc(C)cs4)s3)n2)c1F` (stereo not shown) [Intermediate 121, Ethyl (2-fluoro-3-{[3-({5-[1-hydroxy-1-(4-methyl-1,3-thiazol-2-yl)ethyl]-1,3,4-thiadiazol-2-yl}amino)-1H-pyrazol-1-yl]methyl}phenyl)carbamate] are 1 to 4 µM (≈ 0.504 to 2.01 µg/mL) and below 99.3 nM.
For `CC(=O)Nc1ccc(F)c(Cn2ccc(Nc3nnc(C(C)n4nc(C)cc4C)s3)n2)c1F` (stereo not shown) [Intermediate 122, N-(3-{[3-({5-[1-(3,5-dimethyl-1H-pyrazol-1-yl)ethyl]-1,3,4-thiadiazol-2-yl}amino)-1H-pyrazol-1-yl]methyl}-2,4-difluorophenyl)acetamide] the same measures were above 10 µM and 106 to 212 nM.
